For this test, the species on record is Rattus norvegicus. In words: Concentration required reduce reversibly the incidence of both spontaneous excitatory post-synaptic currents and inhibitory post-synaptic currents. The class given is functional.

`CCCCCCCCO[C@H]1O[C@@H](CO)[C@@H](O)[C@H](O)[C@H]1O` gave a Concentration of 100 µM.

The values are drawn from ChEMBL document CHEMBL1133263, “A simple polar deacetylated caloporoside derivative is a positive modulator of the GABA(A) chloride channel complex in cortical mammalian neurones” (Bioorg Med Chem Lett, 2000).
